Measured values from patent publication US10202408B2, “Prodrugs and methods of use thereof” (Health Innovation Ventures B.V., priority 2012, dated 2019).

Assays:
[1] = tested on: bacterial nitroreductases from the NfsA and NfsB families; experiment: GFP SOS assay with nitroreductase over-expression library; format: cell-based, E. coli strain SOS-R4; details: single and poly mutated variants of NfsA_Ec, single-mutated variant of NfsA_Bs
[2] = tested on: HCT116 cells engineered to over-express E coli NfsA; experiment: Low cell density IC50 (SRB) assay, HCT116 wild type versus E coli NfsA over-expressing cells; format: cell-based, human
Description: (§1) Compounds were subjected to testing, including low-cell density cytotoxicity assay. Cells (500 cells/well) were seeded in 96-well plates and exposed to prodrug for 4 h, washed, then left to grow for a further 5 days. The SRB assay was employed to determine IC50 values (concentration of prodrug required to inhibit proliferation by 50%). Parental HCT116 cells (HCT116 is a cell line derived from human colon cancer) and cells expressing the example nitroreductase gene nfsA from Escherichia coli were evaluated head-to-head. Parental H1299 cells (H1299 is a cell line derived from lung cancer) and cells expressing the example nitroreductase gene nfsA from Escherichia coli were evaluated head-to-head. Parental HCT116 cells and cells expressing human AKR1C3 were evaluated head-to-head. Parental H1299 cells and cells expressing human AKR1C3 were evaluated head-to-head. In a variation of these assays test compounds were assessed for their ability to give hypoxia-selective cell killing. Here wild type HCT116, H460 (H460 is a cell line derived from lung cancer), H1299 and SiHa cells (SiHa is a cell line derived from cervical cancer) were used in addition to HCT116 cells engineered to over express cytochrome P450 reductase (HCT116 POR), a human one-electron nitroreductase. Low-cell density cytotoxicity assays were performed as above under oxic conditions and compared to experiments where cells were shown 4 h of anoxia during the prodrug exposure period, before being washed free of prodrug and then left to grow for a further 5 days under oxic conditions, as above.

[3] = tested on: bacterial nitroreductases from the NfsA and NfsB families; experiment: GFP SOS assay with nitroreductase over-expression library; format: cell-based, E. coli strain SOS-R4; details: 55 candidate nitroreductase library, 6 h challenge
Source text: The method employed the over-expression of a candidate nitroreductase gene from plasmid pUCX in an SOS reporter strain, as first described in Prosser et al., 2010, Biochem Pharmacol 79, 678-687. In order to enhance the sensitivity of the SOS reporter system, an sfiA::GFP reporter construct was integrated into a CDF-based plasmid (which contains a compatible origin of replication with pUCX) to give the pANODuet reporter plasmid for GFP screening. In addition, nfsA, nfsB, azoR, and nemA genes were deleted to minimise background metabolism, and the tolC gene deleted to minimise efflux of test compounds; this strain was designated SOS-R3. Further improvements were obtained by deleting the mdaB, ycaK, and yieF genes to minimise background metabolism, and by introducing transcriptional terminators to the pANODUET reporter plasmid. This final reporter strain was designated SOS-R4.
Stored glycerols of the 55-membered nitroreductase library in SOS-R4 were thawed and used to inoculate overnight cultures (Lysogeny Broth (LB) amended with 100 μg ml^−1 Ampicillin, 50 μg ml^−1 Spectinomycin, 0.4% glucose) that were incubated at 30° C., 200 rpm for 16 h. The next morning the GFP-SOS assay was commenced by inoculation of 195 μl fresh assay media (LB+100 μg ml^−1 Ampicillin, 50 μg ml^−1 Spectinomycin, 0.2% glucose, 50 μM IPTG) with 15 μl of overnight culture in individual wells of a 96-well plate. Plates were incubated at 30° C., 200 rpm for 2.5 h (pre-challenge period), following which cultures were diluted 1:2 by splitting 50:50 into fresh assay media (+DMSO to 0.5% final concentration) and fresh challenge media (assay media+drug to desired concentration, DMSO to 0.5% final concentration) to final volumes of 80 μl apiece in duplicate on a 384-well plate. Plates were incubated at 30° C., 200 rpm for 6 h (challenge period). GFP expression was determined at excitation 488 nm/emission 509 nm. Turbidity was determined by OD600 and fluorescence data from any replicates not found to be within 15% of the median culture turbidity were discarded.

[4] = tested on: H1299 cells engineered to over-express human aldo-ketoreductase 1C3 (AKR1C3); experiment: Low cell density IC50 (SRB) assay, H1299 wild type versus AKR1C3 over-expressing cells; format: cell-based; details: 4 h exposure
Description: as §1

[5] = tested on: wild type SiHa tumour xenografts; experiment: Excision assay with and without radiation, wild type SiHa tumour xenografts; format: in vivo, NIH-III nude mice
Description: Tumours were grown subcutaneously in the flank of NIH-III mice by inoculating cells grown in tissue culture. Tumours were monitored using electronic calipers. When tumours reached treatment size, mice were randomized to treatment groups (five to seven per group). Compounds were given as single (or BID) intraperitoneal doses alone or 5 min after whole body irradiation (^60Co source). Eighteen hours after treatment, tumours were excised, weighed, minced, dissociated enzymatically, and plated to determine clonogenicity. Clonogens/gram of tissue were calculated relative to controls and effects of treatment were tested for significance (ANOVA with Dunnett's).

[6] = tested on: HCT116 MCLs with 3% E coli NfsA-expressing cells; experiment: MCL clonogenic bystander assay, HCT116 MCLs seeded with 3% E coli NfsA-expressing cells; format: cell-based, human; details: 97% wild type HCT116, 3% E coli NfsA-expressing cells
Description: (§2) In parallel, a three dimensional high-cell density multi-cellular layer (MCL) clonogenic assay was performed. 1×10^6 cells of either 100% HCT-116^WT or containing 97% WT with a minor 3% HCT-116^NTR cell population were seeded into a collagen-coated Teflon microporous membrane and left to grow for 3 days. MCLs were then exposed to prodrug for 5 h. After treatment, MCLs were enzyme dissociated, diluted in fresh medium and plated to determine clonogenic survival. To discriminate clonogenic activator (NTR+) from target (NTR−) colonies, cells were plated in non-selective medium (total cells) and medium containing 1 μM puromycin (activator cells). Colonies were grown for 10 days before staining. Colonies containing >50 cells were counted. A variation of this assay was also used to assess for evidence of AKR1C3-dependent cytotoxicity. Here either 100% HCT-116W^T or 100% HCT-116^AKR1C3 cells were seeded to provide MCLs that were then exposed to prodrug.

[7] = tested on: H1299 cells engineered to over-express E coli NfsA; experiment: Low cell density IC50 (SRB) assay, H1299 wild type versus E coli NfsA over-expressing cells; format: cell-based, human
Description: as §1

[8] = tested on: HCT116 MCLs over-expressing AKR1C3; experiment: Multicellular layer (MCL) clonogenic assay, HCT116 wild type versus AKR1C3 over-expressing MCLs; format: cell-based, human
Description: as §2

[9] = tested on: HCT116 cells engineered to over-express human aldo-ketoreductase 1C3 (AKR1C3); experiment: Low cell density IC50 (SRB) assay, HCT116 wild type versus AKR1C3 over-expressing cells; format: cell-based; details: 4 h exposure
Description: as §1

[10] = tested on: 15% E coli NfsA-expressing H1299 xenografts; experiment: Tumour growth delay, 15% E coli NfsA-expressing H1299 xenografts; format: in vivo, NIH-III mice; details: for E coli NfsA mediated anti-tumour efficacy (mean tumour volume): 500 umol/kg twice daily (BID), total 1000 umol/kg; for tumour growth delay: mixed HCT116 and H1299 xenografts, 15% E coli NfsA cells, single (or BID) intraperitoneal dose
Description: Animals weighed 18-25 g at the time of tumour inoculation. Tumours were grown subcutaneously on the right flank of mice by inoculating cells grown in tissue culture (1×10^7 cells in 100 uL serum free α-MEM). Tumour sizes were monitored three times weekly using electronic callipers and treatments were initiated once tumour diameter reached ≥7 mm.
Tumour bearing mice were randomised into the appropriate treatment groups and tumour size and body weight recorded. Test compounds were formulated on the day of the experiment and kept in foil-wrapped tubes out of direct fluorescent light. If recruitment of animals occurred over multiple days, the drug stocks were aliquoted into tubes and frozen once at […] until required. Mice were treated with a single (or BID) dose of prodrug by intraperitoneal injection and thereafter tumour size and body weight was monitored every second day. Tumour volume was calculated as π (l×w×w)/6, where l is the major axis and w is the perpendicular minor axis. Animals were culled when they had reached the appropriate survival endpoint or when body weight loss exceeded 20% of the pre-treatment value.

Structure (SMILES) | activity with mutated nitroreductase variants [1] | E coli NfsA-mediated cytotoxicity (IC50 wild type versus NfsA) [2] | metabolism by bacterial nitroreductases (SOS response) [3] | AKR1C3-mediated cytotoxicity (IC50 wild type versus AKR1C3) [4] | cell killing in combination with radiation versus radiation alone ([5]; HCT116 POR and wild type SiHa xenografts, 10 or 15Gy, single (or BID) intraperitoneal dose) | hypoxic cell kill in vivo (log cell kill) ([5]; with or without 10Gy radiation, 22 at 422, 300 and 11 at 1330, 23 at 1000 umol/kg) | bystander cell killing in MCLs [6] | E coli NfsA-mediated cytotoxicity (IC50 wild type versus NfsA) [7] | AKR1C3-dependent clonogenic cell kill in MCLs [8] | AKR1C3-mediated cytotoxicity (IC50 wild type versus AKR1C3) [9] | E coli NfsA mediated anti-tumour efficacy (mean tumour volume) [10] | tumour growth delay [10]
CCN1CCN(C(=O)c2cc(N(CCBr)CCBr)c(S(C)(=O)=O)cc2[N+](=O)[O-])CC1 [compound 23, (5-(bis(2-bromoethyl)amino)-4-(methylsulfonyl)-2-nitrophenyl)(4-ethylpiperazin-1-yl)methanone] | demonstrated | produce E coli NfsA-mediated cytotoxicity | substrates for multiple wild type and mutant bacterial nitroreductases from the NfsA and NfsB families | less susceptible to AKR1C3-mediated cytotoxicity than PR-104A | increased cell killing above what could be achieved with radiation alone | significant hypoxic cell kill in vivo | display evidence of metabolism by the 3% E coli NfsA-expressing cells with bystander cell killing of the 97% non-expressing neighbour cells | produce E coli NfsA-mediated cytotoxicity | do not cause AKR1C3-dependant cytotoxicity | less susceptible to AKR1C3-mediated cytotoxicity than PR-104A | display significant E coli NfsA mediated anti-tumour efficacy | profound tumour growth delay
CCS(=O)(=O)c1cc([N+](=O)[O-])c(C(=O)N2CCN(C)CC2)cc1N(CCBr)CCBr [compound 25, (5-(bis(2-bromoethyl)amino)-4-(ethylsulfonyl)-2-nitrophenyl)(4-methylpiperazin-1-yl)methanone] | demonstrated | produce E coli NfsA-mediated cytotoxicity | substrates for multiple wild type and mutant bacterial nitroreductases from the NfsA and NfsB families | less susceptible to AKR1C3-mediated cytotoxicity than PR-104A | – | – | display evidence of metabolism by the 3% E coli NfsA-expressing cells with bystander cell killing of the 97% non-expressing neighbour cells | produce E coli NfsA-mediated cytotoxicity | do not cause AKR1C3-dependant cytotoxicity | less susceptible to AKR1C3-mediated cytotoxicity than PR-104A | – | –
CCN1CCN(C(=O)c2cc(N(CCBr)CCBr)c(S(=O)(=O)CC)cc2[N+](=O)[O-])CC1 [compound 26, (5-(bis(2-bromoethyl)amino)-4-(ethylsulfonyl)-2-nitrophenyl)(4-ethylpiperazin-1-yl)methanone] | demonstrated | produce E coli NfsA-mediated cytotoxicity | substrates for multiple wild type and mutant bacterial nitroreductases from the NfsA and NfsB families | less susceptible to AKR1C3-mediated cytotoxicity than PR-104A | – | – | display evidence of metabolism by the 3% E coli NfsA-expressing cells with bystander cell killing of the 97% non-expressing neighbour cells | produce E coli NfsA-mediated cytotoxicity | do not cause AKR1C3-dependant cytotoxicity | less susceptible to AKR1C3-mediated cytotoxicity than PR-104A | display significant E coli NfsA mediated anti-tumour efficacy | profound tumour growth delay
CCS(=O)(=O)c1cc([N+](=O)[O-])c(C(=O)N2CCN(C(C)C)CC2)cc1N(CCBr)CCBr [compound 27, (5-(bis(2-bromoethyl)amino)-4-(ethylsulfonyl)-2-nitrophenyl)(4-isopropylpiperazin-1-yl)methanone] | demonstrated | produce E coli NfsA-mediated cytotoxicity | substrates for multiple wild type and mutant bacterial nitroreductases from the NfsA and NfsB families | less susceptible to AKR1C3-mediated cytotoxicity than PR-104A | – | – | display evidence of metabolism by the 3% E coli NfsA-expressing cells with bystander cell killing of the 97% non-expressing neighbour cells | produce E coli NfsA-mediated cytotoxicity | do not cause AKR1C3-dependant cytotoxicity | less susceptible to AKR1C3-mediated cytotoxicity than PR-104A | – | –
